Assay results taken from PubChem BioAssay AID1919016 (Molecular Pharmacology Branch, DTP, NCI, 2023).
pIC50: −log10 of the molar value.

System: NCI-H196 complex spheroid growth, percent test/control
Test: Anticancer human tumor NCI-H196 cell line growth inhibition [AhR];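 note: seven days of drug exposure starting three days after plating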;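 for viability, T/C: 100% = DMSO vehicle control wells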
Conditions: for pIC50: curve of first compound; for viability, T/C: stronger effect = lower value
Text: Multicellular complex tumor spheroid response to aryl hydrocarbon receptor antagonists in combination with a variety of drugs and investigational agents in selected tumor cell lines
The current study was undertaken to assess response to aryl hydrocarbon receptor antagonists in combination with standard-of-care drugs and investigational agents in solid tumor complex spheroid models. Complex spheroids include a stromal component modeled by human endothelial cells (HUVEC) and fibroblasts modeled by human mesenchymal stem cells (MSCs). The concentration ranges selected for each drug and investigational agent were based upon clinically achievable concentrations if the clinical Cmax of the agent was known.
Compounds. The drugs and investigational agents: BAY 2416964 (NSC825713), GNF351 (NSC835774), CH-223191 (NSC835775), CPI-455 (NSC825282), aza-TdCyd (NSC777586), decitabine (NSC127716), belinostat (NSC758774), entinostat (NSC756642), pevonedistat (NSC761192), tazemetostat (NSC777109), talazoparib (NSC765396), olaparib (NSC753686), selinexor (NSC780203), nedisertib (M3814, NSC802822), bortezomib (NSC756655), venetoclax (NSC766270), doxorubicin (NSC123127), elimusertib (BAY189344, NSC800525), ceralasertib (AZD6738, NSC777638), TAK-243 (NSC785004), alisertib (NSC759677), etoposide (NSC141540), topotecan (NSC609699), eribulin (NSC707389), gemcitabine (NSC613327), carboplatin (NSC241240), cisplatin (NSC119875), and SN-38 (NSC673596) were obtained from the National Cancer Institute (NCI) Developmental Therapeutics Program Chemical Repository (32). The FDA-approved anticancer drug set is available from the Developmental Therapeutics Program at https://dtp.cancer.gov/organization/dscb/obtaining/available plates.htm. […] The stock solutions were prepared in dimethyl sulfoxide (DMSO, Sigma-Aldrich, St. Louis, MO, cat. D2650), except for the platinum compounds which were prepared in saline (Quality Biological, Gaithersburg, MD, cat. 114-055-101), at 800-fold the tested concentration and stored at -70 degrees C prior to their use. All drugs and investigational agents were tested over a range starting from a high concentration at or near the clinical Cmax and decreasing in half-log increments. If the clinical Cmax for an agent had not been determined, the highest concentration tested was 10 microM (Table 1).
Cell Culture. All cells were maintained in an incubator at 37 degrees C and 5% CO2 with 95% humidity. The PDC lines were cultured according to standard operating procedures established by the NCI PDMR (https://pdmr.cancer.gov). Briefly, all PDCs were thawed and cultured in Matrigel-coated flasks prepared with a working solution of 1X Ham's F-12 nutrient mix, without supplementation (Invitrogen, Waltham, MA, cat. 11765054), 100 U/mL penicillin-streptomycin (Invitrogen, cat. 15140122), and 2.5% Matrigel (Corning Inc., Corning, NY, cat. 354248) for the first three passages. All PDCs were cultured in complete DMEM/F-12 media containing advanced DMEM/F-12 (Invitrogen, cat. 12634028), 4.9% defined fetal bovine serum, heat inactivated (HyClone Laboratories Inc., Logan, UT, cat. SH30070.03HI), 389 ng/mL hydrocortisone (Sigma-Aldrich, cat. H4001), 9.7 ng/mL human EGF recombinant protein (Invitrogen, cat. PHG0313), 23.4 microg/mL adenine (Sigma-Aldrich, cat. A2786), 97.3 U/mL penicillin-streptomycin (Invitrogen, cat. 15140122), 1.9 mM L-glutamine (Invitrogen, cat. 25030081), and 9.7 microM Y-27632 dihydrochloride (Tocris Bioscience, Bristol, United Kingdom, cat. 1254). The PDCs were cultured in complete DMEM/F12 media without 10 microM Y-27632 dihydrochloride for at least two passages prior to the screen. The established cell lines NCI-H1341 and […] were cultured in DMEM/F-12, HEPES (Invitrogen, cat. 11330032), 5% defined fetal bovine serum (HyClone Laboratories Inc., cat. SH30070.03), ITS premix universal culture supplement [insulin (5 microg/mL), transferrin (5 microg/mL), and selenious acid (5 ng/mL)] […]

[1] = second compound 0.1 µM, first compound 0.0316 µM
[2] = second compound 0.1 µM, first compound 0.1 µM
[3] = second compound 0.1 µM, first compound 0.316 µM
[4] = second compound 0.1 µM, first compound 1 µM
[5] = second compound 0.1 µM, first compound 3.16 µM
[6] = second compound 0.1 µM, first compound 10 µM
[7] = second compound 0.316 µM, first compound 0.0316 µM
[8] = second compound 0.316 µM, first compound 0.1 µM
[9] = second compound 0.316 µM, first compound 0.316 µM
[10] = second compound 0.316 µM, first compound 1 µM
[11] = second compound 0.316 µM, first compound 3.16 µM
[12] = second compound 0.316 µM, first compound 10 µM
[13] = second compound 1 µM, first compound 0.0316 µM
[14] = second compound 1 µM, first compound 0.1 µM
[15] = second compound 1 µM, first compound 0.316 µM
[16] = second compound 1 µM, first compound 1 µM
[17] = second compound 1 µM, first compound 3.16 µM
[18] = second compound 1 µM, first compound 10 µM
[19] = second compound 3.16 µM, first compound 0.0316 µM
[20] = second compound 3.16 µM, first compound 0.1 µM
[21] = second compound 3.16 µM, first compound 0.316 µM
[22] = second compound 3.16 µM, first compound 1 µM
[23] = second compound 3.16 µM, first compound 3.16 µM
[24] = second compound 3.16 µM, first compound 10 µM
[25] = second compound 10 µM, first compound 0.0316 µM
[26] = second compound 10 µM, first compound 0.1 µM
[27] = second compound 10 µM, first compound 0.316 µM
[28] = second compound 10 µM, first compound 1 µM
[29] = second compound 10 µM, first compound 3.16 µM
[30] = second compound 10 µM, first compound 10 µM

Question: How did the pIC50 (second compound 0.1 µM) turn out when CC(C)CC(NC(=O)C(Cc1ccccc1)NC(=O)c1cnccn1)B(O)O (stereo not given) + CC(CO)NC(=O)c1cc(-c2ccc(Cl)cc2)nn(-c2cnn(C)c2)c1=O was run?
Answer: 8.12

Question: What about the pIC50 (second compound 0.316 µM) of the same compound?
Answer: 8.09

Question: What about the pIC50 (second compound 1 µM) of the same compound?
Answer: 8.06

Question: What about the pIC50 (second compound 3.16 µM) of the same compound?
Answer: 7.97

Question: What about the pIC50 (second compound 10 µM) of the same compound?
Answer: 8.06

Question: And the viability, T/C (second compound 0.1 µM, first compound 0.000949 µM)?
Answer: 108%

Question: And the viability, T/C (second compound 0.1 µM, first compound 0.003 µM)?
Answer: 106%

Question: And the viability, T/C (second compound 0.1 µM, first compound 0.00949 µM)?
Answer: 37%

Question: And the viability, T/C (second compound 0.1 µM, first compound 0.03 µM)?
Answer: 3.54%

Question: And the viability, T/C (second compound 0.1 µM, first compound 0.0949 µM)?
Answer: 2.43%

Question: And the viability, T/C (second compound 0.1 µM, first compound 0.3 µM)?
Answer: 2.49%

Question: And the viability, T/C (second compound 0.316 µM, first compound 0.000949 µM)?
Answer: 106%

Question: What about the viability, T/C (second compound 0.316 µM, first compound 0.003 µM) of the same compound?
Answer: 101%

Question: And the viability, T/C (second compound 0.316 µM, first compound 0.00949 µM)?
Answer: 41.8%

Question: What about the viability, T/C (second compound 0.316 µM, first compound 0.03 µM) of the same compound?
Answer: 2.17%

Question: And the viability, T/C (second compound 0.316 µM, first compound 0.0949 µM)?
Answer: 2.62%

Question: What about the viability, T/C (second compound 0.316 µM, first compound 0.3 µM) of the same compound?
Answer: 1.45%

Question: And the viability, T/C (second compound 1 µM, first compound 0.000949 µM)?
Answer: 109%

Question: And the viability, T/C (second compound 1 µM, first compound 0.003 µM)?
Answer: 103%

Question: What about the viability, T/C (second compound 1 µM, first compound 0.00949 µM) of the same compound?
Answer: 45.8%

Question: And the viability, T/C (second compound 1 µM, first compound 0.03 µM)?
Answer: 3.07%

Question: And the viability, T/C (second compound 1 µM, first compound 0.0949 µM)?
Answer: 1.88%

Question: What about the viability, T/C (second compound 1 µM, first compound 0.3 µM) of the same compound?
Answer: 2.1%

Question: What about the viability, T/C (second compound 3.16 µM, first compound 0.000949 µM) of the same compound?
Answer: 118%

Question: What about the viability, T/C (second compound 3.16 µM, first compound 0.003 µM) of the same compound?
Answer: 113%

Question: What about the viability, T/C (second compound 3.16 µM, first compound 0.00949 µM) of the same compound?
Answer: 54.9%

Question: And the viability, T/C (second compound 3.16 µM, first compound 0.03 µM)?
Answer: 3.25%

Question: And the viability, T/C (second compound 3.16 µM, first compound 0.0949 µM)?
Answer: 1.7%

Question: And the viability, T/C (second compound 3.16 µM, first compound 0.3 µM)?
Answer: 1.74%

Question: What about the viability, T/C (second compound 10 µM, first compound 0.000949 µM) of the same compound?
Answer: 112%

Question: And the viability, T/C (second compound 10 µM, first compound 0.003 µM)?
Answer: 116%

Question: What about the viability, T/C (second compound 10 µM, first compound 0.00949 µM) of the same compound?
Answer: 45.1%

Question: What about the viability, T/C (second compound 10 µM, first compound 0.03 µM) of the same compound?
Answer: 2.87%

Question: What about the viability, T/C (second compound 10 µM, first compound 0.0949 µM) of the same compound?
Answer: 2.23%

Question: What about the viability, T/C (second compound 10 µM, first compound 0.3 µM) of the same compound?
Answer: 2.03%

Question: What does the source list for COc1cc(Nc2ncc3c(n2)-c2ccc(Cl)cc2C(c2c(F)cccc2OC)=NC3)ccc1C(=O)O + CC(CO)NC(=O)c1cc(-c2ccc(Cl)cc2)nn(-c2cnn(C)c2)c1=O?
Answer: pIC50 (second compound 0.1 µM): < 5.00; pIC50 (second compound 0.316 µM): < 5.00; pIC50 (second compound 1 µM): < 5.00; pIC50 (second compound 3.16 µM): < 5.00; pIC50 (second compound 10 µM): < 5.00; viability, T/C [1]: 91.5%; viability, T/C [2]: 107%; viability, T/C [3]: 116%; viability, T/C [4]: 112%; viability, T/C [5]: 111%; viability, T/C [6]: 138%; viability, T/C [7]: 103%; viability, T/C [8]: 106%; viability, T/C [9]: 119%; viability, T/C [10]: 113%; viability, T/C [11]: 127%; viability, T/C [12]: 116%; viability, T/C [13]: 101%; viability, T/C [14]: 98.9%; viability, T/C [15]: 112%; viability, T/C [16]: 111%; viability, T/C [17]: 136%; viability, T/C [18]: 134%; viability, T/C [19]: 107%; viability, T/C [20]: 108%; viability, T/C [21]: 121%; viability, T/C [22]: 115%; viability, T/C [23]: 130%; viability, T/C [24]: 132%; viability, T/C [25]: 107%; viability, T/C [26]: 109%; viability, T/C [27]: 126%; viability, T/C [28]: 122%; viability, T/C [29]: 127%; viability, T/C [30]: 131%

Question: Which results are given for O=C(C=Cc1cccc(S(=O)(=O)Nc2ccccc2)c1)NO + CC(CO)NC(=O)c1cc(-c2ccc(Cl)cc2)nn(-c2cnn(C)c2)c1=O?
Answer: pIC50 (second compound 0.1 µM): 5.79; pIC50 (second compound 0.316 µM): 5.75; pIC50 (second compound 1 µM): 5.69; pIC50 (second compound 3.16 µM): 5.76; pIC50 (second compound 10 µM): 5.74; viability, T/C [1]: 107%; viability, T/C [2]: 92.2%; viability, T/C [3]: 91.3%; viability, T/C [4]: 72.2%; viability, T/C [5]: 21.6%; viability, T/C [6]: 1.02%; viability, T/C [7]: 109%; viability, T/C [8]: 98.1%; viability, T/C [9]: 98.9%; viability, T/C [10]: 71.2%; viability, T/C [11]: 28%; viability, T/C [12]: 0.59%; viability, T/C [13]: 101%; viability, T/C [14]: 99.5%; viability, T/C [15]: 102%; viability, T/C [16]: 83.7%; viability, T/C [17]: 28.5%; viability, T/C [18]: 0.5%; viability, T/C [19]: 108%; viability, T/C [20]: 109%; viability, T/C [21]: 102%; viability, T/C [22]: 74.1%; viability, T/C [23]: 24.3%; viability, T/C [24]: 0.54%; viability, T/C [25]: 119%; viability, T/C [26]: 106%; viability, T/C [27]: 99.9%; viability, T/C [28]: 75.1%; viability, T/C [29]: 26.9%; viability, T/C [30]: 0.56%
